According to patent publication US10183015B2, “Heterocyclic compounds and methods of use” (Medivation Technologies LLC, priority 2015, dated 2019):
Several values for one entry are separate records, joined by “and”; a condition that tells them apart may be missing. Equal values may be shown once.

Legend:
Type in all cases: in vivo
HMGCoA = test: DIN mouse model: hepatic HMGCOA gene expression; conditions: liver, 20 mg/kg group
Procedure: (§1) Gene expression analysis. Hepatic expression levels of genes involved in lipid metabolism (FAS, SREBP1, ACC1, SCD1), cholesterol metabolism (HMG-CoAR, LDLR), SREBP proteolysis (SCAP, INSIG1), ER stress (PERK), oxidative stress (NRF2), inflammation (MCP-1), and fibrosis (collagen 1α1) were quantified by RTqPCR. Expression level was normalized to 18S gene expression and relative expression to vehicle group was calculated with the […] method.
(§2) Male C57Bl/6J mice (8 weeks old) were housed in enriched ventilated cages (31×12.5×12.7 cm) throughout the experimental phase. Animals' cages litters were changed at least once a week. Animal were housed 5 per cage on inverted 12-hour light cycle (at 09:00 am lights off), 22±2° C. and 55±10% relative humidity. The acclimation period was 20 days. During the acclimation period, all mice were fed a standard diet (RM1 (E) 801492, SDS) and tap water ad libitum. After the acclimation period, mice were fed with the DIN diet (60% fat, cholesterol enriched) and fructose-enriched tap water ad libitum until the end of the experiment.
(§3) At 6 weeks of diet, mice were 4-hour fasted (09:00 am to 1:00 pm) and blood (150 μl/EDTA) was collected at 01:00 pm by retro-orbital bleeding under isoflurane anesthesia. Mice were then allocated in 2 homogenous groups (n=12/group) according to their plasma levels of ALT (average levels: 685U/L), AST (average levels: 627U/L) and HOMA-IR index (average value: 4.7), into 2 homogenous groups (see values at day 0 in Tables 15A and 15B ALT/AST and Tables 16A and 16B for HOMA-IR). Mice were then treated once daily by oral gavage with vehicle (Group 1) or Compound #37 at 20 mg/kg (Group 2) for 70 days.
(§4) Hepatic expression levels of genes involved in lipid (FAS, SREBP1, ACC1, SCD1), cholesterol metabolism (HMG-CoAR, LDLR), in SREBP proteolysis (SCAP, INSIG1), in ER stress (PERK), oxidative stress (NRF2), and inflammation (MCP-1) were not changed. However, expression of collagen 1α1, involved in liver fibrosis, was reduced by 66% in mice treated with Compound #37 (p<0.05 vs. vehicle).

Coll1a1 [1] = test: DIN mouse model: hepatic Coll1a1 (collagen 1α1) gene expression; parameters: mean liver collagen α1(I) mRNA: unit not given here; conditions: for Coll1a1 Dct / Coll1a1 2^DDct / Coll1a1 DDct / Coll1a1 (Ct): liver, 20 mg/kg group
Procedure: as §1, §2, §3, §4

FAS = test: DIN mouse model: hepatic FAS gene expression; parameters: key to 2^DDct: expression relative to vehicle group, normalized to 18S; conditions: 20 mg/kg group; for 18S: Gene Expression: FAS table, 18S reference; for 2^DDct / DDct / Dct / FAS: Gene Expression: FAS
Procedure: as §1, §2, §3, §4

Coll1a1 [2] = test: Short-term Paigen-diet NASH mouse model: hepatic Coll1a1 (collagen 1α1) gene expression (RT-qPCR); parameters: key to Fibrosis gene expression Coll1a1: Dct: Ct of gene minus Ct of 18S reference; key to Fibrosis gene expression Coll1a1: 2DDct: expression relative to vehicle group, 2^-ΔΔCt method, 18S-normalized; conditions: 21 days
Procedure: To investigate whether Compound #37 prevents the development of pathology associated with NASH and steatosis in an acute exploratory disease model, a study was conducted using a diet-induced acute liver steatosis model in mice. As described below, in this study, C57BL/6J mice were initiated on the Paigen diet and simultaneously treated with Compound #37 (5, 20, and 40 mg/kg/day) or vehicle control (20% HPβCD 10 mL/kg/day) by oral gavage for 21 days.
After acclimation, 8-week old male C57Bl/6J mice (Charles River) weighing about 25 g were randomized in 4 groups according their body weight and treated once daily around noon by oral gavage with vehicle, or Compound #37 at various for 21 days as follows: Group 1: vehicle-20% (2-hydroxypropyl)-β-cyclodextrin (HP-β-CD) (n=10); Group 2: Compound #37, 5 mg/kg (n=10) Group 3: Compound #37, 20 mg/kg (n=10) Group 4: Compound #37, 40 mg/kg (n=10). During the treatment period, body weight and food intake (measured over 24h) were measured 3 times per week and once a week, respectively. During the acclimation, all mice were fed a standard diet (Special Diets Services RM1 (E), product no. 801492) and tap water ad libitum. After the acclimation period, mice were fed until the end of the experiment with a 60% high fat Paigen diet (60 kcal % fat, 1.25% cholesterol, and 0.5% cholate; D11061901, Research Diet) and tap water ad libitum.
as §1

[3] = individual animals, normalised to 18S, 20 mg/kg
[4] = individual animals, vs vehicle mean, 20 mg/kg

CC(C)Cc1cc(-c2nc(-c3ccc(NS(=O)(=O)C(F)(F)F)cc3Cl)cs2)ccn1 [Compound 37, N-(3-chloro-4-(2-(2-isobutylpyridin-4-yl)thiazol-4-yl)phenyl)-1,1,1-trifluoromethanesulfonamide]
HMGCOA Dct (HMGCoA; [3]): 12.8 and 12.14 and 13.78 and 12.65 and 13.57 and 12.83 and 13.03 and 12.86 and 14.49 and 14.63 and 12.37
HMGCOA 2^DDct (HMGCoA; [4]): 1.34 and 2.12 and 0.68 and 1.49 and 0.79 and 1.31 and 1.14 and 1.28 and 0.41 and 0.38 and 1.8
HMGCOA DDct (HMGCoA; [4]): −0.42 and −1.08 and 0.56 and −0.57 and 0.35 and −0.39 and −0.19 and −0.36 and 1.27 and 1.41 and −0.85
HMGCoA (Ct) (HMGCoA; individual animals, 20 mg/kg): 25.35 and 24.69 and 26.62 and 25.08 and 25.92 and 25.42 and 24.76 and 25.37 and 25.99 and 26.18 and 24.72
HMGCOA 2^DDct (HMGCoA; mean, n 11): 1.16
HMGCOA DDct (HMGCoA; mean, n 11): −0.03
HMGCOA Dct (HMGCoA; mean, n 11): 13.2
HMGCoA (Ct) (HMGCoA; mean, n 11): 25.5
expression of collagen 1α1 reduction (Coll1a1 [1]; 20 mg/kg, 70 days, p<0.05 vs. vehicle): 66%
mean liver collagen α1(I) mRNA (Coll1a1 [1]; 20 mg/kg/day, 10 weeks, vehicle 1.45%, p<0.05): 0.49
Coll1a1 Dct (Coll1a1 [1]; [3]): 15 and 14.23 and 17.82 and 16.38 and 15.37 and 15.65 and 15.13 and 16.1 and 16.14 and 17.48 and 12.82
Coll1a1 2^DDct (Coll1a1 [1]; [4]): 0.48 and 0.82 and 0.07 and 0.19 and 0.37 and 0.31 and 0.44 and 0.23 and 0.22 and 0.09 and 2.19
Coll1a1 DDct (Coll1a1 [1]; [4]): 1.05 and 0.28 and 3.87 and 2.43 and 1.42 and 1.7 and 1.18 and 2.15 and 2.19 and 3.53 and −1.13
Coll1a1 (Ct) (Coll1a1 [1]; individual animals, 20 mg/kg): 27.55 and 26.78 and 30.66 and 28.81 and 27.72 and 28.24 and 26.86 and 28.61 and 27.64 and 29.03 and 25.17
Coll1a1 2^DDct (Coll1a1 [1]; mean, n 11): 0.49
Coll1a1 (Ct) (Coll1a1 [1]; mean, n 11): 27.9
Coll1a1 DDct (Coll1a1 [1]; mean, n 11): 1.70
Coll1a1 Dct (Coll1a1 [1]; mean, n 11): 15.6
18S (FAS; individual animal, 20 mg/kg): 12.55 (2×) and 12.84 and 12.43 and 12.35 (2×) and 12.59 and 11.73 and 12.51 and 11.5 and 11.55
18S (FAS; mean, n 11): 12.3
2^DDct (FAS; individual animal, 20 mg/kg): 2.46 and 1.29 and 0.37 and 1.47 and 0.36 and 1.30 and 0.81 and 0.64 and 0.33 and 0.21 and 1.77
DDct (FAS; individual animal, 20 mg/kg): −1.30 and −0.37 and 1.45 and −0.56 and 1.48 and −0.38 and 0.31 and 0.64 and 1.62 and 2.28 and −0.82
Dct (FAS; individual animal, 20 mg/kg): 7.2 and 8.13 and 9.95 and 7.94 and 9.98 and 8.12 and 8.81 and 9.14 and 10.12 and 10.78 and 7.68
FAS (FAS; individual animal, 20 mg/kg): 19.75 and 20.68 and 22.79 and 20.37 and 22.33 (2×) and 20.71 and 20.54 and 21.65 and 21.62 and 20.03
2^DDct (FAS; mean, n 11): 1
DDct (FAS; mean, n 11): 0.40
Dct (FAS; mean, n 11): 8.9
FAS (FAS; mean, n 11): 21.2
Fibrosis gene expression Coll1a1: 2DDct (Coll1a1 [2]; 5 mg/kg, group mean, n 10): 0.88
Fibrosis gene expression Coll1a1: Coll1a1 (Coll1a1 [2]; 5 mg/kg, group mean, n 10): 27.2
Fibrosis gene expression Coll1a1: DDct (Coll1a1 [2]; 5 mg/kg, group mean, n 10): 0.84
Fibrosis gene expression Coll1a1: Dct (Coll1a1 [2]; 5 mg/kg, group mean, n 10): 15
Fibrosis gene expression Coll1a1: 2DDct (Coll1a1 [2]; 5 mg/kg, individual animals): 0.86 and 0.27 and 0.96 and 0.69 and 0.15 and 0.05 and 1.75 and 2.26 and 1.2 and 0.57
Fibrosis gene expression Coll1a1: Coll1a1 (Coll1a1 [2]; 5 mg/kg, individual animals): 27.81 and 29.15 and 25.8 and 28.03 and 28.92 and 31.82 and 24.93 and 24.75 and 25.01 and 26.07
Fibrosis gene expression Coll1a1: DDct (Coll1a1 [2]; 5 mg/kg, individual animals): 0.21 and 1.9 and 0.05 and 0.54 and 2.75 and 4.33 and −0.81 and −1.18 and −0.27 and 0.81
Fibrosis gene expression Coll1a1: Dct (Coll1a1 [2]; 5 mg/kg, individual animals): 14.4 and 16.04 and 14.19 and 14.68 and 16.89 and 18.47 and 13.33 and 12.96 and 13.87 and 14.95
Fibrosis gene expression Coll1a1: 2DDct (Coll1a1 [2]; 20 mg/kg, group mean, n 5): 0.68
Fibrosis gene expression Coll1a1: Coll1a1 (Coll1a1 [2]; 20 mg/kg, group mean, n 6): 26.6
Fibrosis gene expression Coll1a1: DDct (Coll1a1 [2]; 20 mg/kg, group mean, n 6): 0.24
Fibrosis gene expression Coll1a1: Dct (Coll1a1 [2]; 20 mg/kg, group mean, n 6): 14.4
Fibrosis gene expression Coll1a1: 2DDct (Coll1a1 [2]; 20 mg/kg, individual animals): 0.28 and 0.85 and 0.66 and 1 and 0.61 and 3.91*
Fibrosis gene expression Coll1a1: Coll1a1 (Coll1a1 [2]; 20 mg/kg, individual animals): 28.9 and 26.66 and 26.93 and 27.17 and 26.34 and 23.43
Fibrosis gene expression Coll1a1: DDct (Coll1a1 [2]; 20 mg/kg, individual animals): 1.85 and 0.23 and 0.59 and 0 and 0.71 and −1.97
Fibrosis gene expression Coll1a1: Dct (Coll1a1 [2]; 20 mg/kg, individual animals): 15.99 and 14.37 and 14.73 and 14.14 and 14.85 and 12.17
